This passage reports viability results from patent US20230072523A1, “PROCESS AND SYSTEM FOR ACELLULAR THERAPY” (Orgenesis Inc., priority 2020, published 2023).

The series can be described thus: acetaminophen cytotoxicity, cell viability by XTT assay. It counts as cell-based. Conditions: 48 hrs incubation, control 100%; for viability at 48 h, 5 mM: acetaminophen 5 mM. An excerpt: In the current example, cytotoxicity-induced paracrine EVs were replaced by current existing extracorporeal regimen, in addition to replace depleted body fluids with protective EVs fused during hemodialysis. EV mimetics—Bioxomes or chelator-containing EV mimetics, named Redoxomes as described by us recently in PCT publication no. PCT/IL2019/050391 (incorporated herein by reference) were used. Selected chelator, DSFX—deferoxamine embedded in Redoxomes can be fused with EVs or body fluids, or cells to protect from cytotoxicity damage, prevent liver and kidney failure and mortality, morbidity rate. To establish growth conditions sensitive to proliferation inhibition cytoparameters, calibration of dynamic cell growth parameters was performed by calibration of cell number in CellTiter-Glo Assay (Promega) shown on tables 3 and 4 below in relative units.
Specific protective anti-cytotoxicity example tested on calibrated above assays of EV mimetic proprietary Bioxome, is shown in table below. Cell viability, %, measured by XTT assay (Biological Industries Beit Haemek). Cell viability without treatment was calibrated by dose dependence to serum conditions and cell density. Cell seeding established for 10000, 20000 cells/well in 96 well plates. For RCB001 cells (liver derived mesenchymal like cells)—10,000 cells. For −HepG2 cells—20,000 cells density used. Cells were grown in DMEM plus 10% exosome depleted FBS (ThermoFisher Scientific).
Background: Tetrazolium dyes change colour on reduction, which living cells bring about.

Turning to `CC(=O)Nc1ccc(O)cc1` [Acetaminophen], the viability at 48 h, 5 mM was 57 to 81% (RCB001 cells (liver derived mesenchymal like cells)) and 62% (human, HepG2 cells). Besides, for the setting “RCB001 cells (liver derived mesenchymal like cells), acetaminophen”, the viability at 48 h, 10 mN came out at 46%. For the same compound, the viability at 48 h, 10 mM (human, HepG2 cells, acetaminophen 10 mM) is 46%.

The term viability denotes the share of living cells, or the viability signal relative to a control.
